ChEMBL document CHEMBL4507276 (2021)

Legend:
[1] = target: Interleukin-1 receptor-associated kinase 3 (Homo sapiens) (UniProt Q9Y616); settings: Compound concentration 1000.0 nM
[2] = target: Cyclin-dependent kinase 3 (Homo sapiens) (UniProt Q00526); settings: Compound concentration 1000.0 nM
[3] = system: eIF-2-alpha kinase GCN2 (Homo sapiens), Q9P2K8 [S808G]; settings: Compound concentration 1000.0 nM
[4] = target: Casein kinase I isoform gamma-3 (Homo sapiens) (UniProt Q9Y6M4); settings: Compound concentration 1000.0 nM
[5] = target: Serine/threonine-protein kinase TAO1 (Homo sapiens) (UniProt Q7L7X3); settings: Compound concentration 1000.0 nM
Chain of Serine/threonine-protein kinase TAO1 (Homo sapiens) (Q7L7X3 whole entry): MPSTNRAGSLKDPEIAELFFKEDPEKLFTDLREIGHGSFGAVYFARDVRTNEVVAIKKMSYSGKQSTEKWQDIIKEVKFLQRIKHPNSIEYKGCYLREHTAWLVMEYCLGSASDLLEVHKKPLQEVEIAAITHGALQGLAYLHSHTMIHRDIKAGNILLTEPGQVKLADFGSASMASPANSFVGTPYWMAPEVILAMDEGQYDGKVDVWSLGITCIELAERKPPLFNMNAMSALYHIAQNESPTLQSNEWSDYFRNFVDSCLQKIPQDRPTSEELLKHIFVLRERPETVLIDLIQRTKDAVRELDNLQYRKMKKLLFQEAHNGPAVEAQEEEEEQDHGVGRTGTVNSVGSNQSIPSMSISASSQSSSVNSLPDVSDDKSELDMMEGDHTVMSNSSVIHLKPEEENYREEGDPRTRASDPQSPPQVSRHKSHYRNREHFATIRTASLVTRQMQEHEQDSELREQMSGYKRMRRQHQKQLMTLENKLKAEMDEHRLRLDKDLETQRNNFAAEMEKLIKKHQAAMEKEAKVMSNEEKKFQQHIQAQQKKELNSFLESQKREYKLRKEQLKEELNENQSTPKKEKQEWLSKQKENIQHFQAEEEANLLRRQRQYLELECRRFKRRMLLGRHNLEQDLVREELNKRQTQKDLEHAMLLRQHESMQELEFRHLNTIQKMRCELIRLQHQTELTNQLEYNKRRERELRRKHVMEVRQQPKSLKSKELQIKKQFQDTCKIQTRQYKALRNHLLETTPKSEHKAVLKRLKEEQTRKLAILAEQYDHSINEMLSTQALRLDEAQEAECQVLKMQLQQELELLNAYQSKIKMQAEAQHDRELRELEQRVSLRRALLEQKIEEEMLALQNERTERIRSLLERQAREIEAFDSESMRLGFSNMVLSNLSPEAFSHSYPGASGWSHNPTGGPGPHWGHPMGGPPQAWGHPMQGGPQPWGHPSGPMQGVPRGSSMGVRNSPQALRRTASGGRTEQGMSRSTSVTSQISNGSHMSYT

[6] = target: T1, Cytoplasmic tyrosine-protein kinase BMX (Homo sapiens) (UniProt P51813); settings: Compound concentration 1000.0 nM
T1 sequence (whole entry): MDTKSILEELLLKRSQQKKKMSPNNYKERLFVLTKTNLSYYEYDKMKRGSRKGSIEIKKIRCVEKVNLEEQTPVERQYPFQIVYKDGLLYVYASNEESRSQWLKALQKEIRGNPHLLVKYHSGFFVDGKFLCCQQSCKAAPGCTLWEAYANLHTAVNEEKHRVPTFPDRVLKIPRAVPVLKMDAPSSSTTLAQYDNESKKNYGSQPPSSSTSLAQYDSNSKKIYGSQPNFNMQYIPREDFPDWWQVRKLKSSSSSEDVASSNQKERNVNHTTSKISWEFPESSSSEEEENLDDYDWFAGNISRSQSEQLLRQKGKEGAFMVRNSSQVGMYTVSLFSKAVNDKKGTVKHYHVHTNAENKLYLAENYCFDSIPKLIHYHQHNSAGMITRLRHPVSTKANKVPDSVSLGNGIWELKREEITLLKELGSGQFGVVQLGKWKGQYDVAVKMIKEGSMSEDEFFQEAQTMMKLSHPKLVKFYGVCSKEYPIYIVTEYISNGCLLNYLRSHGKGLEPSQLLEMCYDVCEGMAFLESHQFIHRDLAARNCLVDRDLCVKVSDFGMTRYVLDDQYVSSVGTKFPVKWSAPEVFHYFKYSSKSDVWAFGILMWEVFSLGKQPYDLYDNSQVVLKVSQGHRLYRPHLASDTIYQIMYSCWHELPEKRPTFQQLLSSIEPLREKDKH

[7] = target: Phosphatidylinositol 4,5-bisphosphate 3-kinase catalytic subunit delta isoform (Homo sapiens) (UniProt O00329); settings: Compound concentration 1000.0 nM
Chain of Phosphatidylinositol 4,5-bisphosphate 3-kinase catalytic subunit delta isoform (Homo sapiens) (O00329 whole entry, canonical isoform): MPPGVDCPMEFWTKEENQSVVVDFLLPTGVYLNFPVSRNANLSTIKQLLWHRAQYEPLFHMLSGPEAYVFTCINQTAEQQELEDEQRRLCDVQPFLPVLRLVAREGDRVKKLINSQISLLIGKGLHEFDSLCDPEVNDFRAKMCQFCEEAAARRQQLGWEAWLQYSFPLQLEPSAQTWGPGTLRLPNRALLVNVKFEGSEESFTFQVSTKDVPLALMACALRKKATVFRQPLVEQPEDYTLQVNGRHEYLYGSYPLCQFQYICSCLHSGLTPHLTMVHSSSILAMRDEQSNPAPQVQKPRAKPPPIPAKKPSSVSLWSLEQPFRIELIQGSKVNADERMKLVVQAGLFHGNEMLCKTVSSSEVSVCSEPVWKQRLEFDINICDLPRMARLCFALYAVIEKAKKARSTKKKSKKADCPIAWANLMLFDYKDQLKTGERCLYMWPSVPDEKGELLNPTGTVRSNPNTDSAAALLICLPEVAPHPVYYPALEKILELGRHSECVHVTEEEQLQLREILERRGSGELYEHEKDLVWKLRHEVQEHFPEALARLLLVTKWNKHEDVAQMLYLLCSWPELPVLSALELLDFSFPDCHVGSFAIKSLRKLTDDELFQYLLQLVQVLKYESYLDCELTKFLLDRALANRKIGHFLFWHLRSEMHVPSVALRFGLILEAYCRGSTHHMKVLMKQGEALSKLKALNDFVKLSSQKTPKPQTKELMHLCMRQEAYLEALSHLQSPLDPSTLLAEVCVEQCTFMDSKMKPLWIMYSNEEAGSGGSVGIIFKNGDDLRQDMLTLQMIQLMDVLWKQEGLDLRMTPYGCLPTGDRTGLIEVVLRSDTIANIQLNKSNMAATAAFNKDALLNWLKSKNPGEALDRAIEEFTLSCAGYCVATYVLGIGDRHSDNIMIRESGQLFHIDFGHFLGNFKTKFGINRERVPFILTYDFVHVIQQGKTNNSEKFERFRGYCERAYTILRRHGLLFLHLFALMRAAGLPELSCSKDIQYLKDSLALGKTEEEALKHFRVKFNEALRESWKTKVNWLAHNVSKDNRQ

[8] = target: Protein kinase C delta type (Homo sapiens) (UniProt Q05655); settings: Compound concentration 1000.0 nM
[9] = target: Mitogen-activated protein kinase kinase kinase 1 (Homo sapiens) (UniProt Q13233); settings: Compound concentration 1000.0 nM
[10] = target: Mitogen-activated protein kinase 1 (Homo sapiens) (UniProt P28482); settings: Compound concentration 1000.0 nM
Chain of Mitogen-activated protein kinase 1 (Homo sapiens) (P28482 whole entry): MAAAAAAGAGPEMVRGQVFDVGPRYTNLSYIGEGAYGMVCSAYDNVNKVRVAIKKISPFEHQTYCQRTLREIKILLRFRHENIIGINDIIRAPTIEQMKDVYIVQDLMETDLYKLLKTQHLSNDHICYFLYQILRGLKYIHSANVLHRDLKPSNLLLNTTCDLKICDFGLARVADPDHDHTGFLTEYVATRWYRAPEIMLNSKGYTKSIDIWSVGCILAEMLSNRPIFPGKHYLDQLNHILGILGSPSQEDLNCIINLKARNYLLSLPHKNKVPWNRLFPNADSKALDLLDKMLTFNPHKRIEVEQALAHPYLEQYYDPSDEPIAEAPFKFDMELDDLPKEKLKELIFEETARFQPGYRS

[11] = target: T2, Serine/threonine-protein kinase TAO3 (Homo sapiens) (UniProt Q9H2K8); settings: Compound concentration 1000.0 nM
T2 sequence (whole entry): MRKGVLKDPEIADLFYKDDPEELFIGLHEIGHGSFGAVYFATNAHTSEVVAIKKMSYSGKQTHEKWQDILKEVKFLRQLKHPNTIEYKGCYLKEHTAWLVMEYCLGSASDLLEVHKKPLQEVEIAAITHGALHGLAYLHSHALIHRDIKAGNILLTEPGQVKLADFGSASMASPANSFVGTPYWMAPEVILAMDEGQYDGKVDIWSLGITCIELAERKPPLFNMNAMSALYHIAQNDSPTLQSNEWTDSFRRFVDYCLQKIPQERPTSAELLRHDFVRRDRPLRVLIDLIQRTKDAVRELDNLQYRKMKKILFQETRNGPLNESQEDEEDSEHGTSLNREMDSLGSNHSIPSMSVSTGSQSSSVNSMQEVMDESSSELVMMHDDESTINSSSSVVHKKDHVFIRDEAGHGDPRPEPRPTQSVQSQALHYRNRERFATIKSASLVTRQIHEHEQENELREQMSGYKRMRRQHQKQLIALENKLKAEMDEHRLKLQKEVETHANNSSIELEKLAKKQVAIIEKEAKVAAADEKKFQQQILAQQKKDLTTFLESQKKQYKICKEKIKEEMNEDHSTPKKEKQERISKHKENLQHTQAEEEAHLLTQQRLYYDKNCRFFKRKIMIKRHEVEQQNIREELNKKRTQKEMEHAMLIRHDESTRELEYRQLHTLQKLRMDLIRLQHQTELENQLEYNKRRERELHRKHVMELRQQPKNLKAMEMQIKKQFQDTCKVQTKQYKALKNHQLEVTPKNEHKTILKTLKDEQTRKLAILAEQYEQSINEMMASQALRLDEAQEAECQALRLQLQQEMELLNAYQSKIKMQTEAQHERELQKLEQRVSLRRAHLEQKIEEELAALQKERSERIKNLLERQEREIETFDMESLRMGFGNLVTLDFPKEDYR

[12] = target: Serine/threonine-protein kinase OSR1 (Homo sapiens) (UniProt O95747); settings: Compound concentration 1000.0 nM
Chain of Serine/threonine-protein kinase OSR1 (Homo sapiens) (O95747 2-527 limits assumed): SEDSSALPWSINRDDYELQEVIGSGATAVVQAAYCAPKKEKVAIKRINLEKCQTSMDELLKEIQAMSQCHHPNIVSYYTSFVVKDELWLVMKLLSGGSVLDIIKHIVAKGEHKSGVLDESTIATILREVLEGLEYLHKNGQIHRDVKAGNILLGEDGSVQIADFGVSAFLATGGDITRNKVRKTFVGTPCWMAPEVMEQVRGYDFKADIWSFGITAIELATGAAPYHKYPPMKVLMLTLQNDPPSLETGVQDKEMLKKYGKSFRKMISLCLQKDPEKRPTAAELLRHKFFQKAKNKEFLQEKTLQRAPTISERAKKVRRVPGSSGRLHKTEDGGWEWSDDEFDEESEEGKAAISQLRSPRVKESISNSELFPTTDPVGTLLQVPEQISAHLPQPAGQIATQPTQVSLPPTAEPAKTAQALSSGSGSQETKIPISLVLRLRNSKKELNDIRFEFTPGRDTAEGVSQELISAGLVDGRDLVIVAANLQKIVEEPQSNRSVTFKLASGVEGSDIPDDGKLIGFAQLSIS

[13] = target: Serine/threonine-protein kinase ULK2 (Homo sapiens) (UniProt Q8IYT8); settings: Compound concentration 1000.0 nM
[14] = target: Ephrin type-A receptor 4 (Homo sapiens) (UniProt P54764); settings: Compound concentration 1000.0 nM
[15] = target: Beta-3 adrenergic receptor (Homo sapiens) (UniProt P13945); settings: Compound concentration 10.0 uM
[16] = target: T3, Aurora kinase C (Homo sapiens) (UniProt Q9UQB9); settings: Compound concentration 1000.0 nM
T3 sequence (whole entry): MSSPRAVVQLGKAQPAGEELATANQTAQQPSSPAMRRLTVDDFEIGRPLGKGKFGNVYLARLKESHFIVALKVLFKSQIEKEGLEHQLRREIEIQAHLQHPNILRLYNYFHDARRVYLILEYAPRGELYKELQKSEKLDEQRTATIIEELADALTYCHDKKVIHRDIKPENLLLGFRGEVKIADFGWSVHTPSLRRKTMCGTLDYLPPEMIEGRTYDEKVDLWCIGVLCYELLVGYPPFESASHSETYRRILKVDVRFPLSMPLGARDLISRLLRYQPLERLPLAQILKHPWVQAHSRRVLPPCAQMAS

[17] = target: Epidermal growth factor receptor (Homo sapiens) (UniProt P00533); settings: Compound concentration 1000.0 nM
[18] = target: Serine/threonine-protein kinase MRCK beta (Homo sapiens) (UniProt Q9Y5S2); settings: Compound concentration 1000.0 nM
[19] = target: Serine/threonine-protein kinase PAK 1 (Homo sapiens) (UniProt Q13153); settings: Compound concentration 1000.0 nM
[20] = target: Receptor tyrosine-protein kinase erbB-4 (Homo sapiens) (UniProt Q15303); settings: Compound concentration 1000.0 nM

Chain of eIF-2-alpha kinase GCN2 (Homo sapiens), Q9P2K8 [S808G] (Q9P2K8 whole entry S808G, canonical isoform): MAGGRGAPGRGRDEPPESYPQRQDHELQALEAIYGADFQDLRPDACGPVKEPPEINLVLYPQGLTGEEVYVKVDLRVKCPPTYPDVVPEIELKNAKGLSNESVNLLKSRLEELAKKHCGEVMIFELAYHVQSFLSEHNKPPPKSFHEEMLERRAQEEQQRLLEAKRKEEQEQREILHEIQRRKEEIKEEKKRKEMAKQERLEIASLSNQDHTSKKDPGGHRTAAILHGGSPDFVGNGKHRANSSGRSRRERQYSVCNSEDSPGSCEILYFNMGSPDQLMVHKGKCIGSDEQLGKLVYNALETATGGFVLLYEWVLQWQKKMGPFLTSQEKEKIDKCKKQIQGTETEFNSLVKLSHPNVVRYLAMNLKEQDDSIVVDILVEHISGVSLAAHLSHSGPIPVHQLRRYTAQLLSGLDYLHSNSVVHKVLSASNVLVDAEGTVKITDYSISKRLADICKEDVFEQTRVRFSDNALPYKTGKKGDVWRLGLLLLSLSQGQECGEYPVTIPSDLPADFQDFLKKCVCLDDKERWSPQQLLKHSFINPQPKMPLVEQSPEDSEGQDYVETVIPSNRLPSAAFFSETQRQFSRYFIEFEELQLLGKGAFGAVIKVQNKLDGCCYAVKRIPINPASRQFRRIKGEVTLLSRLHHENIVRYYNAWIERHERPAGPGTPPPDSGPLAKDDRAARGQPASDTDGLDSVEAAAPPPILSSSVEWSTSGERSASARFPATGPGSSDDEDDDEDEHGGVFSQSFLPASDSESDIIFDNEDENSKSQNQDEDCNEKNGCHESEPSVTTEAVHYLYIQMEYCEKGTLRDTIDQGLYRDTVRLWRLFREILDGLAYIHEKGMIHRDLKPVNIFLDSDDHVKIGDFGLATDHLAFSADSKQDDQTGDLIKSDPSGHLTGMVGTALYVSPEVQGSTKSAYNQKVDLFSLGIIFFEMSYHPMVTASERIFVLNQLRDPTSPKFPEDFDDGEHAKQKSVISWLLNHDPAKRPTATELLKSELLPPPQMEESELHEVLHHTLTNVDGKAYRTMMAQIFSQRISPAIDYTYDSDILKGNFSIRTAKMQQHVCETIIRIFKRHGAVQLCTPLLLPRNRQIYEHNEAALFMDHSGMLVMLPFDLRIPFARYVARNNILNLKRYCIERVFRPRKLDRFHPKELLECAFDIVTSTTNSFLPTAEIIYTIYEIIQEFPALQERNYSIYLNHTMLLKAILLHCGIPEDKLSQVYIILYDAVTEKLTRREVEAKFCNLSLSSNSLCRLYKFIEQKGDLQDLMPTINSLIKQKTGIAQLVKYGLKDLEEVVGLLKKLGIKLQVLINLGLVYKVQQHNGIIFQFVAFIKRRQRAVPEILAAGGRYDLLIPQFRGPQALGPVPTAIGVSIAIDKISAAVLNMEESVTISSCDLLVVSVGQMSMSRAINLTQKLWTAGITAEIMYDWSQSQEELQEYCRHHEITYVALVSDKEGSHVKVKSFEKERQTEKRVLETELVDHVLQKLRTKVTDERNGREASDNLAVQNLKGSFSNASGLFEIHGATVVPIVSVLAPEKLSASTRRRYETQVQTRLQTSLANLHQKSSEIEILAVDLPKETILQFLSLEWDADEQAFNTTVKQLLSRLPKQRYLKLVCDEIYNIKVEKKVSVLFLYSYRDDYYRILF
Chain of Cyclin-dependent kinase 3 (Homo sapiens) (Q00526 whole entry, looked up): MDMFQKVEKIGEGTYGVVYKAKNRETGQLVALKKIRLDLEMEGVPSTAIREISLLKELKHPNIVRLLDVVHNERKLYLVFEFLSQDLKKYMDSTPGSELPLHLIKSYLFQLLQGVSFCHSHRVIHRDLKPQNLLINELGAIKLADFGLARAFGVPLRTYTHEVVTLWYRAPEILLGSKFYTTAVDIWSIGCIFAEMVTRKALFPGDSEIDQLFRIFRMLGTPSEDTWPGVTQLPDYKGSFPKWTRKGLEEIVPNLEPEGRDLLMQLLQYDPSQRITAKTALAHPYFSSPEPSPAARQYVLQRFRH

CN(C)C(=O)Cn1cc(-c2nc(C3(c4ccc(-c5cnc(N)nc5)cc4)CC3)no2)cn1 [BI 0153]
inactive: residual activity [1] 96% | residual activity [2] 100% | residual activity [3] 83% | residual activity [4] 100% | residual activity [5] 86% | residual activity [6] 88% | residual activity [7] 100% | residual activity [8] 67% | residual activity [9] 77% | residual activity [10] 81% | residual activity [11] 67% | residual activity [12] 82% | residual activity [13] 78% | residual activity [14] 100% | inhibition [15] 3.06% | residual activity [16] 100% | residual activity [17] 93% | residual activity [18] 85% | residual activity [19] 100% | residual activity [20] 100%

CN(C)C(=O)Cn1cc(-c2nc([C@@](C)(c3ccc(-c4cnc(N)nc4)cc3)C3CC3)no2)cn1 [BI 665915]
inactive: residual activity [1] 100% | residual activity [2] 100% | residual activity [3] 100% | residual activity [4] 95% | residual activity [5] 75% | residual activity [6] 93% | residual activity [7] 93% | residual activity [8] 98% | residual activity [9] 90% | residual activity [10] 100% | residual activity [11] 89% | residual activity [12] 86% | residual activity [13] 100% | residual activity [14] 100% | inhibition [15] 9.54% | residual activity [16] 100% | residual activity [17] 93% | residual activity [18] 99% | residual activity [19] 100% | residual activity [20] 100%
